This is an account of results in patent US20190008870A1, “COMPOSITIONS AND METHODS FOR LIPID METABOLISM DISORDER” (JANSFAT BIOTECHNOLOGY CO., LTD., priority 2016, published 2019).

In assay [1] the test system is ROCK II. Kind of assay: Expression of ROCK II (Table 12). The settings on record: Control group 100 (%).
A further assay relates to PDE-5A. Put plainly: Expression of PDE-5A (Table 12). Conditions: Control group 100 (%).
Another assay deals with mice fed with HFD. Put plainly: Serum and liver lipid levels of mice fed with HFD. It counts as in vivo. Conditions: for HDL chol. / LDL chol. / TG / Tot. chol.: Dose 2.5 mg/kg (Table 2). The protocol: (§1) During the 2 month experiments, mice fasted for one night before the experiment was changed from a standard diet (STD) to an HFD and then the mice were randomly divided into 13 groups, including a protection group, 2 control and 10 treatment groups. Six mice were used in each group. […] Liver from the protection group supplemented with KMUP-1 HCl (1 mg/kg/day) were used to determine the HMG CoA reductase expression. Each group of mice had free access to drinking water from week 1 to week 14. Tap water was used to normalize mineral nutrition.
Within 2 months, the 3 day food intake average for each animal was measured. The weight gain and plasma lipid levels of each group were determined and compared to the non-treatment control group. […] Agents used in the assays were obtained from Merck & Co. (Kenilworth, N.J., U.S.A.). Triglyceride (TG), total cholesterol, HDL cholesterol and LDL cholesterol in mouse serum were measured by methods used in the clinic. To measure the hepatic Triglyceride, isolated liver were cut into small chips.

Another assay relates to eNOS. Kind of assay: Expression of eNOS (Table 12). Conditions: Control group 100 (%).
Another assay concerns PPARγ. Kind of assay: PPARγ expression in HepG2 cells. The assay is classed as cell-based. The settings on record: HepG2 cells; for PPARγ: Control 100. The method, then:
(§2) The HepG2 hepatoma cell line was purchased from the American Type Culture Collection (ATCC, Manassas, Va., U.S.A.). Cells were cultured in Dulbecco's Modified Eagle's Medium (DMEM). […] Then the targeted drugs solution was incubated with the cells for 24 hours, followed by protein extraction. […] HepG2 cells were treated with various concentrations of targeted drugs for 24 hours. Reactions were terminated by washing twice with cold PBS, and the cells were then harvested. Proteins in the whole-cell lysate were homogenized in an ice-cold lysis buffer and a protease inhibitor (Sigma-Aldrich, St. Louis, Mo., U.S.A.). The homogenate was centrifuged at 90,000×g for 15 minutes at 4° C., and supernatant was recovered as the total cellular protein. Cytosolic and membrane fractions of HepG2 cells were prepared using a CNM (Cytosol Nuclear Membrane) compartmental protein extraction kit (BioChain Institute Inc., Hayward, Calif., U.S.A.) according to the manufacturer's instructions. All of the fractionated protein solutions were stored at −80° C. until analysis. To measure the expression levels of proteins by drugs, the total cell protein was extracted after incubation with treatments for 24 hours and then Western blotting analysis was performed as described previously.

Assay [2] has as its system ROCK II. Put plainly: ROCK II expression in HepG2 cells. It counts as cell-based. The method, then: as §2, with “-80°” for “−80°”
Assay [3] in a line: Body weight and food intake of mice fed with HFD. It counts as in vivo. The settings on record: HFD mice, 5 mg/kg p.o. The method, then:
as §1, with “In the experiment, C57BL/6J male mice (21-22 g), after fasting, were fed an HFD as a model of hyperlipidemia for 8 weeks. During” for “During”
Within 2 months, the 3 day food intake average for each animal was measured. The weight gain and plasma lipid levels of each group were determined and compared to the non-treatment control group. Mouse blood was collected during the daytime by cardiac puncture followed by centrifugation at 90×g (Benchtop Centrifuge, U.S.A.) to separate the serum, and frozen at −80° C., for biochemical analysis using a Hitachi Clinical Analyzer 7070 (Hitachi High-Technologies Co. Tokyo, Japan). Agents used in the assays were obtained from Merck & Co. (Kenilworth, N.J., U.S.A.). Triglyceride (TG), total cholesterol, HDL cholesterol and LDL cholesterol in mouse serum were measured by methods used in the clinic. To measure the hepatic Triglyceride, isolated liver were cut into small chips.

Another assay concerns HMG CoA reductase. Put plainly: HMG CoA reductase expression in HepG2 cells (Western blotting). The assay is classed as cell-based. The settings on record: for HMGR (%): CTL 100. The protocol:
The HepG2 hepatoma cell line was purchased from the American Type Culture Collection (ATCC, Manassas, Va., U.S.A.). Cells were cultured in Dulbecco's Modified Eagle's Medium (DMEM). The culture media was supplemented with 5% heat-inactivated FBS, penicillin (100 U/mL) and streptomycin (100 μg/mL). Cells were grown in a humidified atmosphere containing 5% CO2 at 37° C., in which the oxygen tension in the incubator was held at 140 mmHg (20% O2, v/v; normoxic conditions). […] Then the targeted drugs solution was incubated with the cells for 24 hours, followed by protein extraction. The targeted drugs were added to the […].
HepG2 cells were treated with various concentrations of targeted drugs for 24 hours. Reactions were terminated by washing twice with cold PBS, and the cells were then harvested. Proteins in the whole-cell lysate were homogenized in an ice-cold lysis buffer and a protease inhibitor (Sigma-Aldrich, St. Louis, Mo., U.S.A.). The homogenate was centrifuged at 90,000×g for 15 minutes at 4° C., and supernatant was recovered as the total cellular protein. Cytosolic and membrane fractions of HepG2 cells were prepared using a CNM (Cytosol Nuclear Membrane) compartmental protein extraction kit (BioChain Institute Inc., Hayward, Calif., U.S.A.) according to the manufacturer's instructions. All of the fractionated protein solutions were stored at −80° C. until analysis. To measure the expression levels of proteins by drugs, the total cell protein was extracted after incubation with treatments for 24 hours and then Western blotting analysis was performed as described previously.

Another assay concerns ABCA1. Kind of assay: ABCA1 expression in HepG2 cells. It counts as cell-based. The settings on record: HepG2 cells, 10^−5 M, 24 hours; Control 100, Vehicle 110. The protocol:
as §2

“And” between values parts separate entries of the source, which are not always exact repeats. Equal entries are not always repeated.

In the case of KMUP-1-DL-ascorbic acid [KMUP-1-VC], the “ROCK II expression” value in the assay on ROCK II [1] was determined as 40.8 ± 3.7%. The same molecule gave a PDE-5A expression with PDE-5A of 68.8 ± 5.3%. In the assay with mice fed with HFD, this molecule yielded an HDL chol. of 97.3 ± 1.6 mg/dL, an LDL chol. of 16.5 ± 0.9 mg/dL, a TG of 78.2 ± 3.6 mg/dL and a Tot. chol. of 129.4 ± 1.4 mg/dL.
Take “KMUP-1-sodium carboxyl methylcellulose [KMUP-1-CMC]”: the eNOS expression with eNOS was found to be 152.14 ± 6.3%. Moreover, in the assay with ROCK II [1], the “ROCK II expression” value amounted to 38.6 ± 2.7%. Further, the PDE-5A expression in the assay with PDE-5A was determined as 58.7 ± 3.5%. For the same molecule, in the assay on mice fed with HFD, the HDL chol. was found to be 108.4 ± 1.3 mg/dL, the LDL chol. was 16.4 ± 1.7 mg/dL, the TG is 83.2 ± 5.3 mg/dL and the Tot. chol. stood at 129.7 ± 1.6 mg/dL.
For `CC(C)=CCC/C(C)=C/CC/C(C)=C/COP(=O)(O)OP(=O)(O)O` [FPP, Farnesyl pyrophosphate, reference compound], in the assay on PPARγ (FPP (10 μM) alone), the PPARγ is listed as 64%. In addition, the ROCKII with ROCK II [2] (FPP (10 μM) alone, Control 100) is recorded as 118%.
`CCCc1nn(C)c2c(=O)nc(-c3cc(S(=O)(=O)N4CCN(C)CC4)ccc3OCC)[nH]c12` [SIDAF, 5-[2-ethoxy-5-(4-methylpiperazin-1-yl)-sulphonylphenyl]-1-methyl-3-propyl-4H-pyrazolo[4,3-d]pyrimidin-7-one, reference compound]: the “final BW (Body weight)” value in assay [3] came out at 23.9 ± 0.9 g. Further, in the assay with mice fed with HFD (5 mg/kg p.o.), the HDL cholesterol was determined as 103.2 ± 2.5 mg/dL, the LDL cholesterol is 15.3 ± 1.3 mg/dL, the “TG in serum (Triacylglycerol)” value is 82.7 ± 6.3 mg/dL and the TG of liver is listed as 34.5 ± 2.** mg/dl. Also, the “Tot. chol. (total cholesterol)” value in the assay on mice fed with HFD (5 mg/kg p.o.) is 133.7 ± 4.3 mg/dL.
In the assay on PPARγ (GGPP (10 μM) alone), `CC(C)=CCC/C(C)=C/CC/C(C)=C/CC/C(C)=C/COP(=O)(O)OP(=O)(O)O` [GGPP, Geranylgeranyl pyrophosphate, reference compound] registered a PPARγ of 50%. In addition, in the assay on ROCK II [2] (GGPP (10 μM) alone, Control 100), the ROCKII is 150% and 220%.
As to `CC(O)(CCO)CC(=O)O` (stereo not drawn) [Mevalonate], the “HMGR (%)” value in the assay on HMG CoA reductase (Mevalonate 20 (μm)) is on record as 110%; in the assay on HMG CoA reductase (Mevalonate 40 (μm)) it was 95%; in the assay with HMG CoA reductase (Mevalonate 60 (μm)), 55%; in the assay on HMG CoA reductase (Mevalonate 80 (μm)), 48%; with HMG CoA reductase (Mevalonate 100 (μm)) it was 13%. The “HMG CoA expression” value in the assay with HMG CoA reductase (Mevalonate (100 μM) alone, Control 100) is 20%.
As for `Nc1nc2c(nc(Sc3ccc(Cl)cc3)n2[C@@H]2O[C@@H]3CO[P@@](=O)(S)O[C@H]3[C@H]2O)c(=O)[nH]1` [Rp-8-pCPT-cGMPS, 8-(p-chloro-phenylthio)guanosine-3,5-monophosphorothioate, reference compound], the “ROCK II expression” value with ROCK II [2] (Rp-8-pCPT-cGMPS 10 μM alone, Control 100) is reported as 320.
Consider `C[C@@H](N)[C@H]1CC[C@H](C(=O)Nc2ccncc2)CC1` [Y27632, reference compound], for which the ABCA1 expression with ABCA1 was found to be 225. Besides, the PPARγ expression in the assay on PPARγ (10^−5 M, 24 hours, Control 100, Vehicle 260) amounted to 550. The “ROCK II expression” value in the assay with ROCK II [2] (10^−5 M, 24 hours, Control 100, Vehicle 88) is on record as 52.
